# Reference: patent US4649153A, “5,6-Dihydro-4H-cyclopenta(b)thiophene-6-carboxylic acids, preparation processes and medicines containing them” (Lipha, Lyonnaise Industrielle Pharmaceutique, priority 1984, dated 1987)
# “Also recorded” adds a separate entry of the source. Where two headings read alike, the source gives them in different places.
# Assays:
# UV erythema = experiment: Protection from UV erythema (Winter et al.), early inflammation; type: in vivo, guinea pigs; details: Cavia porcellus, read-out: Protection from UV ED 50
# Experimental: White guinea pigs having their backs freshly depilated were radiated individually by exposure to the radiation of a UV lamp placed 25 cm above the animal's back for 1 min 30 sec. The zone to be radiated was delimited by a covering pierced with circular holes wrapping each animal. The erythema was visually marked 2 hours after exposure to radiation. The guinea pigs were treated orally with the test products 1 hour after exposure to UV.
# carrageenan edema = experiment: Carrageenan edema test (Winter et al.), rat back paw, anti-inflammatory activity; type: in vivo, rats (male); details: for ED30: Rattus norvegicus, read-out: Carrageenan edema ED 30
# Experimental: Edema of a back paw was caused in male rats by subplantar injection of a 1% suspension of carrageenan in apyrogenic physiological solute. Measurement of the edema by plethysmography occurred 3 hours later. The products studied were administered orally 1 hour before the carrageenan injection. The protection conferred by the treatment was determined by calculation of ED 30 (dose moderating the edema 30% in relation to untreated animals).
# [1] = Acute oral toxicity (LD50), mortality recorded 2 weeks later; details: mouse, in vivo, Table III, Swiss mice
# Experimental: Lethal doses 50 (LD50) were determined by oral administration in Swiss mice. Mortality was recorded 2 weeks later.
# [2] = Table II, oral, 1 hour after UV exposure, guinea pigs, dose reducing erythema 50%
# [3] = Table II, oral, 1 hour before carrageenan, rats, dose moderating edema 30%
# [4] = Table I, oral, 1 hour after UV exposure, guinea pigs, erythema marked 2 hours after exposure, dose reducing erythema 50%
# [5] = Table I, oral, 1 hour before carrageenan, rats, edema measured 3 hours later, dose moderating edema 30%
SMILES,ED50 (UV erythema; [2]),ED30 (carrageenan edema; [3]),ED50 (UV erythema; [4]),ED30 (carrageenan edema; [5]),also measured
"O=C(c1ccccc1)c1cc2c(s1)CCC2C(=O)O (stereo not shown) [2-Benzoyl-5,6-dihydro-4H cyclopenta[b]thiophene-4-carboxylic, reference compound]",> 50 mg/kg,> 30 mg/kg,,,
"CC(C)Cc1cc2c(s1)CCC2C(=O)O (stereo not shown) [2-Isobutyl-5,6-dihydro-4H cyclopenta[b]thiophene-4-carboxylic, reference compound]",> 50 mg/kg,> 30 mg/kg,,,
"CC(C)Cc1sc2c(c1C(=O)c1ccccc1)C(C(=O)O)CC2 (stereo not shown) [3-Benzoyl-2-isobutyl-5,6-dihydro-4Hcyclopenta[b]thio-phene-4-carboxylic acid, reference compound]",> 50 mg/kg,> 30 mg/kg,,,
"Cc1sc2c(c1C(=O)c1ccccc1)C(C(=O)O)CC2 (stereo not shown) [3-benzoyl-2-methyl-5,6-dihydro-4H-cyclopenta[b]thiophene-4-carboxylic acid, reference compound]",> 50 mg/kg,> 30 mg/kg,,,
"Cc1sc2c(c1C(=O)c1ccccc1)CCC2C(=O)O (stereo not shown) [Example 7, 3-Benzoyl-2-methyl-5,6-dihydro-4H-cyclopenta[b]thiophene-6-carboxylic acid]",0.4 mg/kg,,0.4 mg/kg,0.7 mg/kg,"LD50 at 336 h [1]: 275 mg/kg; Carrageenan edema ED 30 (carrageenan edema; [3]): 0.7 mg/kg; activity compared with Indomethacin and with isomeric 4-carboxylic acids (in words) (carrageenan edema; carrageenan edema, UV protection and Randall and Selitto tests): greater than that of Indomethacin; also recorded: considerably greater than that of 5,6-dihydro-4H-cyclopenta[b]thiophene-4-carboxylic isomeric acids"
"Cc1sc2c(c1C(=O)c1cccs1)CCC2C(=O)O (stereo not shown) [Example 10, 2-Methyl 3-(2-thenoyl)-5,6-dihydro-4H-cyclopenta[b]thiophene-6-carboxylic acid]",,,0.2 mg/kg,3 mg/kg,LD50 at 336 h [1]: 275 mg/kg
"Cc1sc2c(c1C(=O)c1ccc(F)cc1)CCC2C(=O)O (stereo not shown) [Example 21, 3-(4-Fluorobenzoyl)-2-methyl-5,6-dihydro-4H-cyclopenta[b]thiophene-6-carboxylic acid]",,,0.4 mg/kg,2.4 mg/kg,
"Cc1sc2c(c1C(=O)c1ccc(N(C)C)cc1)CCC2C(=O)O (stereo not shown) [Example 27, 3-(4-Dimethylaminobenzoyl)-2-methyl-5,6-dihydro-4H-cyclopenta[b]thiophene-6-carboxylic acid]",,,0.6 mg/kg,1.3 mg/kg,
"CC(C)Cc1sc2c(c1C(=O)c1ccccc1)CCC2C(=O)O (stereo not shown) [Example 32, 3-Benzoyl-2-isobutyl-5,6-dihydro-4H-cyclopenta[b]thiophene-6-carboxylic acid]",,,> 50 mg/kg,> 50 mg/kg,
"CCc1sc2c(c1C(=O)c1ccccc1)CCC2C(=O)O (stereo not shown) [Example 38, 3-Benzoyl-2-ethyl-5,6-dihydro-4H-cyclopenta[b]thiophene-6-carboxylic acid]",,,2 mg/kg,6 mg/kg,
"COc1ccc2c(c1)c(CC(=O)O)c(C)n2C(=O)c1ccc(Cl)cc1 [INDOMETHACIN, 1-(4-chlorobenzoyl)-5-methoxy-2-methyl-3-indolylacetic acid, reference compound]",,,,,LD50 at 336 h [1]: 25 mg/kg; ED50 (UV erythema; po): 4.5 mg/kg; ED30 (carrageenan edema; po): 5 mg/kg
